Measured values taken from publication PMC10700596 (Nature Communications, 2023).
Values joined by “and” are separate entries in the source; they are usually repeats but may differ in a detail not shown here. Equal entries are not always repeated.

Legend:
[1] = biological target: T1, PPARγ (Homo sapiens, UniProt P37231); assay: PPARγ agonist/antagonist assay (Eurofins item G124); assay type: biochemical
T1 construct: purchased Eurofins item G124
From the text: (§1) . […] This panel includes several adverse drug reaction receptors such as the serotonin receptor 5HT2b, M1 and M2 muscarinic receptors and adrenergic receptors. […]. page 7:
(§2) Supplementary Figure 7: Non-GPCR off-target screening for 74. a)-e) Dose-response curves of 74 at […]
(§3) proliferator-activated receptor gamma (PPARγ, Eurofins item G124). Data in a)-e) and g)-i) represent two technical replicates. Source data are provided as a Source Data file.
(§4) (1 picture or pasted object on this page, not shown here)

[2] = biological target: ABL1(E255K)-phosphorylated (Homo sapiens, UniProt P00519, E255K); assay: biochemical; assay type: binding; settings: 10000 nM; read-out: Percent Control
From the text: as §1, §2, §3, §4

[3] = biological target: ACVR1B (Homo sapiens, UniProt P36896); assay: biochemical; assay type: binding; settings: 10000 nM; read-out: Percent Control
From the text: as §1, §2, §3, §4

[4] = biological target: ADCK3 (Homo sapiens, UniProt Q8NI60); assay: biochemical; assay type: binding; settings: 10000 nM; read-out: Percent Control
From the text: as §1, §2, §3, §4

[5] = biological target: AKT1 (Homo sapiens, UniProt P31749); assay: biochemical; assay type: binding; settings: 10000 nM; read-out: Percent Control
From the text: as §1, §2, §3, §4

[6] = biological target: AKT2 (Homo sapiens, UniProt P31751); assay: biochemical; assay type: binding; settings: 10000 nM; read-out: Percent Control
From the text: as §1, §2, §3, §4

[7] = biological target: BRAF (Homo sapiens, UniProt P15056); assay: biochemical; assay type: binding; settings: 10000 nM; read-out: Percent Control
From the text: as §1, §2, §3, §4

[8] = biological target: BTK (Homo sapiens, UniProt Q06187); assay: biochemical; assay type: binding; settings: 10000 nM; read-out: Percent Control
From the text: as §1, §2, §3, §4

[9] = biological target: CDK11 (Homo sapiens, UniProt Q9BWU1); assay: biochemical; assay type: binding; settings: 10000 nM; read-out: Percent Control
From the text: as §1, §2, §3, §4

[10] = biological target: CDK2 (Homo sapiens, UniProt P24941); assay: biochemical; assay type: binding; settings: 10000 nM; read-out: Percent Control
From the text: as §1, §2, §3, §4

[11] = biological target: CDK7 (Homo sapiens, UniProt P50613); assay: biochemical; assay type: binding; settings: 10000 nM; read-out: Percent Control
From the text: as §1, §2, §3, §4

[12] = biological target: CHEK1 (Homo sapiens, UniProt O14757); assay: biochemical; assay type: binding; settings: 10000 nM; read-out: Percent Control
From the text: as §1, §2, §3, §4

[13] = biological target: DCAMKL1 (Homo sapiens, UniProt O15075); assay: biochemical; assay type: binding; settings: 10000 nM; read-out: Percent Control
From the text: as §1, §2, §3, §4

[14] = biological target: DYRK1B (Homo sapiens, UniProt Q9Y463); assay: biochemical; assay type: binding; settings: 10000 nM; read-out: Percent Control
From the text: as §1, §2, §3, §4

[15] = biological target: EGFR (Homo sapiens, UniProt P00533); assay: biochemical; assay type: binding; settings: 10000 nM; read-out: Percent Control
From the text: as §1, §2, §3, §4

[16] = biological target: EGFR(L858R) (Homo sapiens, UniProt P00533, L858R); assay: biochemical; assay type: binding; settings: 10000 nM; read-out: Percent Control
From the text: as §1, §2, §3, §4

[17] = biological target: ERK1 (Homo sapiens, UniProt P27361); assay: biochemical; assay type: binding; settings: 10000 nM; read-out: Percent Control
From the text: as §1, §2, §3, §4

[18] = biological target: FAK (Homo sapiens, UniProt Q05397); assay: biochemical; assay type: binding; settings: 10000 nM; read-out: Percent Control
From the text: as §1, §2, §3, §4

[19] = biological target: FGFR2 (Homo sapiens, UniProt P21802); assay: biochemical; assay type: binding; settings: 10000 nM; read-out: Percent Control
From the text: as §1, §2, §3, §4

[20] = biological target: GSK3B (Homo sapiens, UniProt P49841); assay: biochemical; assay type: binding; settings: 10000 nM; read-out: Percent Control
From the text: as §1, §2, §3, §4

[21] = biological target: IKK-alpha (Homo sapiens, UniProt O15111); assay: biochemical; assay type: binding; settings: 10000 nM; read-out: Percent Control
From the text: as §1, §2, §3, §4

[22] = biological target: INSR (Homo sapiens, UniProt P06213); assay: biochemical; assay type: binding; settings: 10000 nM; read-out: Percent Control
From the text: as §1, §2, §3, §4

[23] = biological target: JNK1 (Homo sapiens, UniProt P45983); assay: biochemical; assay type: binding; settings: 10000 nM; read-out: Percent Control
From the text: as §1, §2, §3, §4

[24] = biological target: MET (Homo sapiens, UniProt P08581); assay: biochemical; assay type: binding; settings: 10000 nM; read-out: Percent Control
From the text: as §1, §2, §3, §4

[25] = biological target: PDPK1 (Homo sapiens, UniProt O15530); assay: biochemical; assay type: binding; settings: 10000 nM; read-out: Percent Control
From the text: as §1, §2, §3, §4

[26] = biological target: PIK3CA (Homo sapiens, UniProt P42336); assay: biochemical; assay type: binding; settings: 10000 nM; read-out: Percent Control
From the text: as §1, §2, §3, §4

[27] = biological target: PIK3CG (Homo sapiens, UniProt P48736); assay: biochemical; assay type: binding; settings: 10000 nM; read-out: Percent Control
From the text: as §1, §2, §3, §4

[28] = biological target: PRKCE (Homo sapiens, UniProt Q02156); assay: biochemical; assay type: binding; settings: 10000 nM; read-out: Percent Control
From the text: as §1, §2, §3, §4

[29] = biological target: ROCK2 (Homo sapiens, UniProt O75116); assay: biochemical; assay type: binding; settings: 10000 nM; read-out: Percent Control
From the text: as §1, §2, §3, §4

[30] = biological target: SRC (Homo sapiens, UniProt P12931); assay: biochemical; assay type: binding; settings: 10000 nM; read-out: Percent Control
From the text: as §1, §2, §3, §4

[31] = biological target: SRPK3 (Homo sapiens, UniProt Q9UPE1); assay: biochemical; assay type: binding; settings: 10000 nM; read-out: Percent Control
From the text: as §1, §2, §3, §4

[32] = biological target: TRKA (Homo sapiens, UniProt P04629); assay: biochemical; assay type: binding; settings: 10000 nM; read-out: Percent Control
From the text: as §1, §2, §3, §4

[33] = biological target: ULK2 (Homo sapiens, UniProt Q8IYT8); assay: biochemical; assay type: binding; settings: 10000 nM; read-out: Percent Control
From the text: as §1, §2, §3, §4

[34] = biological target: YANK3 (Homo sapiens, UniProt Q86UX6); assay: biochemical; assay type: binding; settings: 10000 nM; read-out: Percent Control
From the text: as §1, §2, §3, §4

[35] = biological target: ZAP70 (Homo sapiens, UniProt P43403); assay: biochemical; assay type: binding; settings: 10000 nM; read-out: Percent Control
From the text: as §1, §2, §3, §4

[36] = biological target: p38-alpha (Homo sapiens, UniProt Q16539); assay: biochemical; assay type: binding; settings: 10000 nM; read-out: Percent Control
From the text: as §1, §2, §3, §4

[37] = biological target: BMPR2 (Homo sapiens, UniProt Q13873); assay: biochemical; assay type: binding; settings: for Signal (qPCR): BMPR2
From the text: Supplementary Figure 7: Non-GPCR off-target screening for 74. a)-e) Dose-response curves of 74 at
proliferator-activated receptor gamma (PPARγ, Eurofins item G124). Data in a)-e) and g)-i) represent two
technical replicates. Source data are provided as a Source Data file.

Sequence of BMPR2 (Q13873 27-1038): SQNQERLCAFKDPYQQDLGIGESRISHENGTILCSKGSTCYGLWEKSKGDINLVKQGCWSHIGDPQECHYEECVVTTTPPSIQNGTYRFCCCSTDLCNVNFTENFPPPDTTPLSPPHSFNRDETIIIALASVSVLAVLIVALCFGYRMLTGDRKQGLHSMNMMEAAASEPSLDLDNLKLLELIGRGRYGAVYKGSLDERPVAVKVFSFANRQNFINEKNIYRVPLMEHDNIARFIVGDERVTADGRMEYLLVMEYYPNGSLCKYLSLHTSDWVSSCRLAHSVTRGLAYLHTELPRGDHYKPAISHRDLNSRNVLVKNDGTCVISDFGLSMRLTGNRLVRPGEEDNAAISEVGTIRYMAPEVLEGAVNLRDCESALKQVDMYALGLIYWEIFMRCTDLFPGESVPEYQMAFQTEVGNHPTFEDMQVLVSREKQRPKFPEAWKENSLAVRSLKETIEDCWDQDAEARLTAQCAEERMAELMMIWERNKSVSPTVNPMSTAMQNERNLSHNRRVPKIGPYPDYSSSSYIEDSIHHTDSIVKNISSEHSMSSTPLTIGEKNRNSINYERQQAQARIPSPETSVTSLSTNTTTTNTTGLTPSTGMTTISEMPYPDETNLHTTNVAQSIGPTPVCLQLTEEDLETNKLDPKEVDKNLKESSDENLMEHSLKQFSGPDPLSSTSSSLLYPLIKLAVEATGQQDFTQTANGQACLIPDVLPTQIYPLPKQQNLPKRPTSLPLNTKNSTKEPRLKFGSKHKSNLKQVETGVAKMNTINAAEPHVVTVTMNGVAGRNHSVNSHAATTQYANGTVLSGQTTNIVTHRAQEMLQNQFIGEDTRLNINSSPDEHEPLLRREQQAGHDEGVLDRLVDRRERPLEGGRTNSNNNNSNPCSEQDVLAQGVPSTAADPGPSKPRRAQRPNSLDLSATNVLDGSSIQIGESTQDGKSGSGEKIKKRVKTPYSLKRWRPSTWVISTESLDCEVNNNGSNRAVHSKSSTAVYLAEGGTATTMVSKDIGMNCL
T1 sequence (P37231 whole entry, species assumed): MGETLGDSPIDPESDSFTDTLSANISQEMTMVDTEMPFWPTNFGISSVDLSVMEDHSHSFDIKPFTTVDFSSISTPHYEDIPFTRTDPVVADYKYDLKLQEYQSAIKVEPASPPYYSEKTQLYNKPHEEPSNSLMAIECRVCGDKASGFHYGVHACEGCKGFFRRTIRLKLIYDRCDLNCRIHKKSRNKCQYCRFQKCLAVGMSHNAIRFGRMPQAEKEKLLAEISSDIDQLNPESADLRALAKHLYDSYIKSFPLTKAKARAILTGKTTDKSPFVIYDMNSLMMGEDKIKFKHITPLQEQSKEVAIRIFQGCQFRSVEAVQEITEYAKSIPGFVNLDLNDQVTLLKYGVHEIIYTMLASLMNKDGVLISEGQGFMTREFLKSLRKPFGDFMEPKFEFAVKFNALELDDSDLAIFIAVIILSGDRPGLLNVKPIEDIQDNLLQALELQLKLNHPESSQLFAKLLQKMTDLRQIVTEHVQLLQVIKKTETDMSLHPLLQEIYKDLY
Sequence of IKK-alpha (O15111 whole entry): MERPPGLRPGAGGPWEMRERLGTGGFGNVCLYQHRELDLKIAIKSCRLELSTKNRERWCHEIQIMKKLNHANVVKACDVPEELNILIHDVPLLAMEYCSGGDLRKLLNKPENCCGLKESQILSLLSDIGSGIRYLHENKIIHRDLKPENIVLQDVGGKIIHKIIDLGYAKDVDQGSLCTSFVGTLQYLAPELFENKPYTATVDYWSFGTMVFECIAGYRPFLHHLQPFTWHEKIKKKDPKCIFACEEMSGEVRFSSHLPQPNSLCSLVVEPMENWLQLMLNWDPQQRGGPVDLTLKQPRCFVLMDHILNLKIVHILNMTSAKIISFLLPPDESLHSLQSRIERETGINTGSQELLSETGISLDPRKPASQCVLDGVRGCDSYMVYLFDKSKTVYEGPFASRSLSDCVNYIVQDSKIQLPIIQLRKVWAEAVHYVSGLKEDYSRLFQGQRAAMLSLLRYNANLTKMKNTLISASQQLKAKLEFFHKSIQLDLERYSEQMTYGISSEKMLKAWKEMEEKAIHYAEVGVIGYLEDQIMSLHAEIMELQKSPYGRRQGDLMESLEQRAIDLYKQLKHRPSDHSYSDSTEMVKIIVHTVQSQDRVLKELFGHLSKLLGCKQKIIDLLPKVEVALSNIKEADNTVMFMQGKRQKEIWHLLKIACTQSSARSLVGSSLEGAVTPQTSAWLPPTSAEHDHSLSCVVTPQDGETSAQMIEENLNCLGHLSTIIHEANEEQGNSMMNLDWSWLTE
Sequence of DYRK1B (Q9Y463 whole entry): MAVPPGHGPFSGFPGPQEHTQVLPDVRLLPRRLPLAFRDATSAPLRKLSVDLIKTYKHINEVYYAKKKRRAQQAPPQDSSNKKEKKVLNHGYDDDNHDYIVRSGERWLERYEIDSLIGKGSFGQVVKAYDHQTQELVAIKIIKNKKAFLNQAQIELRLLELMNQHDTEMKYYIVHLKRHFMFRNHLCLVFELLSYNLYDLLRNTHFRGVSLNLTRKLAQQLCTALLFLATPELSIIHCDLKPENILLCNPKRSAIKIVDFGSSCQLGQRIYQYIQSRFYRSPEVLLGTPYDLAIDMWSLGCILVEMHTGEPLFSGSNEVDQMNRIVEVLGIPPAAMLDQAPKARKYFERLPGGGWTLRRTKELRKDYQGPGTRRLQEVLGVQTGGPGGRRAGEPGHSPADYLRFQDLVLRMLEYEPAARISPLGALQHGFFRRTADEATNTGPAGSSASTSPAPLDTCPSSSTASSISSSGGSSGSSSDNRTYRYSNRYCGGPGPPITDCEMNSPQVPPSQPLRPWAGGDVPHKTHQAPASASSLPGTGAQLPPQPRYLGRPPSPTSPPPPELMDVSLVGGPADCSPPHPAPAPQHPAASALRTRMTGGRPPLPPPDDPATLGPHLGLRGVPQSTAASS
Sequence of SRC (P12931 whole entry): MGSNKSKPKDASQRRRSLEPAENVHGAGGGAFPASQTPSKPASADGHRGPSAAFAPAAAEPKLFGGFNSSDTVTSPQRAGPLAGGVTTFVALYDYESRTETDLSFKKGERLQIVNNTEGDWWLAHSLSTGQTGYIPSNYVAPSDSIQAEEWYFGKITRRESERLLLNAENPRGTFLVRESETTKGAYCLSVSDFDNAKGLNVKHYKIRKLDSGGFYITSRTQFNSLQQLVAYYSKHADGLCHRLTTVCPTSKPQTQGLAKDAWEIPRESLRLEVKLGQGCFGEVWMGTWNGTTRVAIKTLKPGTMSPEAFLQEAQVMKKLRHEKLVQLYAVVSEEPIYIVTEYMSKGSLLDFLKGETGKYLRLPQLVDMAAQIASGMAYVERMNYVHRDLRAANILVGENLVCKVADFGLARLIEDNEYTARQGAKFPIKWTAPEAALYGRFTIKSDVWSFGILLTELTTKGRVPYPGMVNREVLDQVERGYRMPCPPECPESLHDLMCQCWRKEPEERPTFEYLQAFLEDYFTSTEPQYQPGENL
Sequence of PRKCE (Q02156 whole entry): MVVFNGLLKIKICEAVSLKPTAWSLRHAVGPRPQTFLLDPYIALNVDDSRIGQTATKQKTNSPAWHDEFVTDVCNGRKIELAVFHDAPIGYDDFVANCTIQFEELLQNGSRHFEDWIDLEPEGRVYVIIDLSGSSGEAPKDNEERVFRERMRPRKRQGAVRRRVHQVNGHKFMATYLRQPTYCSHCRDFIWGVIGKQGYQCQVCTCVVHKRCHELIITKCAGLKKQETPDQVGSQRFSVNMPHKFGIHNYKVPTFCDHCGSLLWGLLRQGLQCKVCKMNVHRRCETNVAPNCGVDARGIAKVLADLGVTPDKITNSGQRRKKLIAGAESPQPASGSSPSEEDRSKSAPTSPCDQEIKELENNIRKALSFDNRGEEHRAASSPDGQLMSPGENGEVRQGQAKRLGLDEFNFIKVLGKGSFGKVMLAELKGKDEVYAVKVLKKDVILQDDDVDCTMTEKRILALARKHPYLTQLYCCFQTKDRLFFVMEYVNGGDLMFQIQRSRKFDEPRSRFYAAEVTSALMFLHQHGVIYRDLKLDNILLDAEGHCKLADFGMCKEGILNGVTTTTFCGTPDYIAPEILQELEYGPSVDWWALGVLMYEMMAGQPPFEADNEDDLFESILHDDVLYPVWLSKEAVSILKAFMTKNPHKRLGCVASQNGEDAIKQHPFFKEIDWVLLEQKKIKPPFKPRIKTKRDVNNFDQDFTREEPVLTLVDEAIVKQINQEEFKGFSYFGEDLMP
Sequence of ERK1 (P27361 whole entry): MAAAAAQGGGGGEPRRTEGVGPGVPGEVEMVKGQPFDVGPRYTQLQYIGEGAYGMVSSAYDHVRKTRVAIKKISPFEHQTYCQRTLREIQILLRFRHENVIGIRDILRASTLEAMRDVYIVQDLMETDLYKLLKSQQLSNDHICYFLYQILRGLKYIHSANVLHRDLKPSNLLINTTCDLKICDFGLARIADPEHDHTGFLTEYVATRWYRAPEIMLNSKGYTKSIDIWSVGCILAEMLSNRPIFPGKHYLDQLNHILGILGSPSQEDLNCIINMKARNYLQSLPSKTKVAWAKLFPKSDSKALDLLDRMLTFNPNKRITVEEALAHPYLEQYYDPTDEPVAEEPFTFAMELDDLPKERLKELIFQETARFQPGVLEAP
Sequence of AKT1 (P31749 whole entry): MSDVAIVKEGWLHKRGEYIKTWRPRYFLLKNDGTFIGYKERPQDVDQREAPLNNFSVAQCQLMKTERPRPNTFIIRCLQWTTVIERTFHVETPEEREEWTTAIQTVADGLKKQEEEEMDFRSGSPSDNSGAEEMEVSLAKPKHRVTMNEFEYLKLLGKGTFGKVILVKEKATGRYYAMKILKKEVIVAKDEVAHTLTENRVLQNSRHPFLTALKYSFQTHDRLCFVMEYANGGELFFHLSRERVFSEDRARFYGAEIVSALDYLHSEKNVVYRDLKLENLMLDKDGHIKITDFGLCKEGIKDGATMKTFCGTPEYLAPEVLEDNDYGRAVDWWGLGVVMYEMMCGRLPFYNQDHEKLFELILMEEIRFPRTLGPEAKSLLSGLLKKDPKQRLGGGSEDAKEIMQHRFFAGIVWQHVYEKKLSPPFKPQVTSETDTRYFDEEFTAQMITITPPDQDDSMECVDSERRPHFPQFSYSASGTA

In the case of `O=C(O)C1CCC2(CC1)CC(Nc1ncnc3[nH]c4c(F)cccc4c13)C2` (stereo not shown) [Compound 74, OC(=O)C1CCC2(CC(C2)NC=3N=CN=C4NC=5C(F)=CC=CC5C34)CC1], the “agonist or antagonist activity at PPARγ” value [1] is reported as “no agonist or antagonist activity”, the “inhibitory activity against PPARγ” value ([1]; 3 µM) is reported as “no inhibitory activity” and the remaining activity at 10 µM [2] is reported as 57%. For the same compound, the remaining activity at 10 µM [3] was 55%, the remaining activity at 10 µM [4] was 85% and the remaining activity at 10 µM [5] was 100%. For the same compound, the remaining activity at 10 µM [6] was 74%, the remaining activity at 10 µM [7] was 86% and the remaining activity at 10 µM [8] was 67%. It also gave a remaining activity at 10 µM [9] of 46%, a remaining activity at 10 µM [10] of 96% and a remaining activity at 10 µM [11] of 62%. For the same compound, the remaining activity at 10 µM [12] was 100%, the remaining activity at 10 µM [13] was 78% and the remaining activity at 10 µM [14] was 74%. It also gave a remaining activity at 10 µM [15] of 96%, a remaining activity at 10 µM [16] of 84% and a remaining activity at 10 µM [17] of 100%. For the same compound, the remaining activity at 10 µM [18] was 97%, the remaining activity at 10 µM [19] was 71% and the remaining activity at 10 µM [20] was 82%. It also gave a remaining activity at 10 µM [21] of 42%, a remaining activity at 10 µM [22] of 90% and a remaining activity at 10 µM [23] of 35%. The remaining activity at 10 µM [24] was 100%, the remaining activity at 10 µM [25] was 64% and the remaining activity at 10 µM [26] was 64%. For the same compound, the remaining activity at 10 µM [27] was 3.5%, the remaining activity at 10 µM [28] was 57% and the remaining activity at 10 µM [29] was 59%. The remaining activity at 10 µM [30] was 88%, the remaining activity at 10 µM [31] was 67% and the remaining activity at 10 µM [32] was 11%. The remaining activity at 10 µM [33] was 54%, the remaining activity at 10 µM [34] was 62% and the remaining activity at 10 µM [35] was 75%. For the same compound, the remaining activity at 10 µM [36] was 87%, the remaining activity at 10 µM ([37]; 10000 nM, read-out: Percent Control) was 0% and the Kd ([37]; BMPR2, dose-response) was 30 nM. The “Signal (qPCR)” value ([37]; compound 1e-5 nM) was 3.65e-5 and 5.32e-5, the “Signal (qPCR)” value ([37]; compound 0.0001 nM) was 5.46e-5 and 5.63e-5 and the “Signal (qPCR)” value ([37]; compound 0.001 nM) was 6.07e-5 and 6.11e-5. The “Signal (qPCR)” value ([37]; compound 0.169 nM) was 4.64e-5 and 4.8e-5, the “Signal (qPCR)” value ([37]; compound 0.508 nM) was 4.94e-5 and 5.14e-5 and the “Signal (qPCR)” value ([37]; compound 1.52 nM) was 5.5e-5 and 5.39e-5. For the same compound, the “Signal (qPCR)” value ([37]; compound 4.57 nM) was 5.07e-5 and 5.31e-5, the “Signal (qPCR)” value ([37]; compound 13.7 nM) was 3.76e-5 and 3.48e-5 and the “Signal (qPCR)” value ([37]; compound 41.2 nM) was 2.19e-5 and 2.2e-5. For the same compound, the “Signal (qPCR)” value ([37]; compound 123 nM) was 7.98e-6 and 7.65e-6, the “Signal (qPCR)” value ([37]; compound 370 nM) was 1.69e-6 and 1.57e-6 and the “Signal (qPCR)” value ([37]; compound 3330 nM) was 4.07e-8 and 4.89e-8. For the same compound, the “Signal (qPCR)” value ([37]; compound 10000 nM) was 1.28e-8 and 1.26e-8.
